Reference: PMC8773473, “Lithocholic Acid Amides as Potent Vitamin D Receptor Agonists” (Biomolecules, 2022)
Like-named read-outs stand apart in the source and are kept apart here.

T1: VDR (Homo sapiens, UniProt P11473)
T1 construct: expressed in transfected cells; host or cells: HEK293
T1 sequence (P11473 1-427): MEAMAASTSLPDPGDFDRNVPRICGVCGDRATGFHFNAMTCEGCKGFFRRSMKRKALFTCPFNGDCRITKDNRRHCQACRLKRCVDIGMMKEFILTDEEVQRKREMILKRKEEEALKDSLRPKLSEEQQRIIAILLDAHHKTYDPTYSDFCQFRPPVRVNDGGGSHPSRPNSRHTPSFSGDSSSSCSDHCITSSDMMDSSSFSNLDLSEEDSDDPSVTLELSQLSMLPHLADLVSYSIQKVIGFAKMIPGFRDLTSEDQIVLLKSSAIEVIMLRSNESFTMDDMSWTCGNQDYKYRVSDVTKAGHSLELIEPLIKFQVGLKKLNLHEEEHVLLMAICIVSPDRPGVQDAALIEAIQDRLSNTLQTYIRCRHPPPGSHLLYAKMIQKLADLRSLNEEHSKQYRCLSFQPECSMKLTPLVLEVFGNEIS

T2: rat VDR LBD (residues 116–423, Δ165–211) (rat, UniProt P13053 116-423, Δ165–211)
T2 construct: Cloned in pET14b; tag removed by thrombin digestion; also called rVDR LBD; source: Escherichia coli C41, purified (Ni-NTA, SP-Sepharose, thrombin digestion, gel filtration); not shown: His6, N-terminal, cleaved
T2 sequence (looked up): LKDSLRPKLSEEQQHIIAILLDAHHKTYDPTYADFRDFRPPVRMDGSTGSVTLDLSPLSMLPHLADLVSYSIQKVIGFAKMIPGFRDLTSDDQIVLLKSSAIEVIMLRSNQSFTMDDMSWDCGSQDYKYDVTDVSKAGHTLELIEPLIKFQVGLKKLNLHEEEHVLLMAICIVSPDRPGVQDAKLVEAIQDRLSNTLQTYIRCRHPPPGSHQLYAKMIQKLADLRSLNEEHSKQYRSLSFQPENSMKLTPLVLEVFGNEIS


How the values were obtained:
HL-60 cells = assay: HL-60 cell differentiation-inducing assay (NBT reduction); assay type: cell-based, human; conditions: for EC50: Homo sapiens, HL-60, 96 h, read-out: HL-60 Assay EC50
Procedure: The vitamin D activity of the synthesized lithocholic acid amide derivatives was evaluated in terms of cell differentiation-inducing activity toward human acute promyelocytic leukemia cell line HL-60 [12]. HL-60 cell differentiation was evaluated in terms of the ratio of nitroblue tetrazolium (NBT)-positive cells (Figure 3 and Table 1).
Control cells were treated with the same volume of ethanol alone. 1α,25(OH)2D3 was always assayed at the same time as a positive control. The cells were incubated at 37 °C under 5% CO2 in air for 4 days. The percentage of differentiated cells was determined by nitro-blue tetrazolium (NBT) reduction assay. […] The percentage of cells containing blue-black formazan was determined in a minimum of 200 cells. All experiments were done in triplicate.

[1] = preliminary pharmacokinetics in mice (data not shown); assay type: in vivo; conditions: preliminary results
VDR = target: T1, VDR; assay: VDR transactivation assay (luciferase reporter) in HEK293 cells; assay type: cell-based
Procedure: Human embryonic kidney HEK293 cells (RIKEN Cell Bank, Tsukuba, Japan) were cultured in Dulbecco’s modified Eagle’s medium containing 5% FBS, 100 U/mL penicillin, and 0.1 mg/mL streptomycin (Nacalai Tesque, Kyoto, Japan). Transfections used 15 ng of pCMX-hVDR, 50 ng of TK-Spp × 3-LUC reporter plasmid, and 10 ng of pCMX-β-galactosidase for each well of a 96-well plate, and were performed by the calcium phosphate coprecipitation assay as described previously. Eight hours after transfection, test compounds were added. Cells were harvested after 16–24 h and were assayed for luciferase and β-galactosidase activity using a luminometer and a microplate reader (Molecular Devices, Sunnyvale, CA, USA). Luciferase data were normalized to the internal β-galactosidase control. All experiments were done in triplicate.

[2] = parameters: method as in PMID 33853023; conditions: cited from earlier work
[3] = target: T2, rat VDR LBD (residues 116–423, Δ165–211); assay: crystal structure; VDR LBD with about 10 equiv of ligand 7b and coactivator peptide (25 mM Tris-HCl, pH 8.0; 50 mM NaCl; 10 mM DTT; 0.02% NaN3); vapor diffusion, 0.2 M potassium citrate tribasic monohydrate, 20% (w/v) PEG3350, 20 °C; 1.94 Å; conditions: both partners purified
[4] = HEK293 cells transfected with pCMX-hVDR and TK-Spp×3-LUC reporter, 'Inactive' = no or week active at the concentrations below 1 μM
[5] = ratio of NBT-positive cells, 4 days incubation, 'Inactive' = no or week active at the concentrations below 1 μM

Molecule	EC50 (VDR; [4]) [nM]	EC50 (HL-60 cells; [5]) [nM]	other results
C=C1/C(=C\C=C2/CCC[C@]3(C)[C@@H]([C@H](C)CCCC(C)(C)O)CC[C@@H]23)C[C@@H](O)C[C@@H]1O [1α,25(OH)2D3 (1), 1α,25-Dihydroxyvitamin D3, reference compound]	–	–	EC50 (HL-60 cells): 0.74 nM
C[C@H](CCC(=O)O)[C@H]1CC[C@H]2[C@@H]3CC[C@@H]4C[C@H](CC(C)(C)O)CC[C@]4(C)[C@H]3CC[C@]12C [Compound 3]	0.083	1.01	elimination from the serum [1]: eliminated very quickly; calcemic activity compared with 1α,25(OH)2D3 (1) [2]: lower calcemic activity than 1; calcemic activity compared with 1α,25(OH)2D3 (1) ([2]; listed as 3 (Dcha-20)): lower calcemic activity
C[C@H](CCC(N)=O)[C@H]1CC[C@H]2[C@@H]3CC[C@@H]4C[C@H](CC(C)(C)O)CC[C@]4(C)[C@H]3CC[C@]12C [Compound 4a]	0.12	0.44	–
CNC(=O)CC[C@@H](C)[C@H]1CC[C@H]2[C@@H]3CC[C@@H]4C[C@H](CC(C)(C)O)CC[C@]4(C)[C@H]3CC[C@]12C [Compound 4b]	0.96	–	HL-60 Assay EC50 (HL-60 cells; [5]): Inactive ^a
C[C@H](CCC(=O)NO)[C@H]1CC[C@H]2[C@@H]3CC[C@@H]4C[C@H](CC(C)(C)O)CC[C@]4(C)[C@H]3CC[C@]12C [Compound 5a]	0.14	1.18	–
CONC(=O)CC[C@@H](C)[C@H]1CC[C@H]2[C@@H]3CC[C@@H]4C[C@H](CC(C)(C)O)CC[C@]4(C)[C@H]3CC[C@]12C [Compound 5b]	0.14	1.45	–
C[C@H](CCC(=O)NC#N)[C@H]1CC[C@H]2[C@@H]3CC[C@@H]4C[C@H](CC(C)(C)O)CC[C@]4(C)[C@H]3CC[C@]12C [Compound 6]	0.1	0.32	–
C[C@H](CCC(=O)NCC(=O)O)[C@H]1CC[C@H]2[C@@H]3CC[C@@H]4C[C@H](CC(C)(C)O)CC[C@]4(C)[C@H]3CC[C@]12C [Compound 7a]	–	2.03	–
C[C@H](CCC(=O)NCCC(=O)O)[C@H]1CC[C@H]2[C@@H]3CC[C@@H]4C[C@H](CC(C)(C)O)CC[C@]4(C)[C@H]3CC[C@]12C [Compound 7b]	0.89	0.45	–
C[C@H](CCC(=O)NCCCC(=O)O)[C@H]1CC[C@H]2[C@@H]3CC[C@@H]4C[C@H](CC(C)(C)O)CC[C@]4(C)[C@H]3CC[C@]12C [Compound 7c]	0.081	0.64	–
C[C@H](CCC(=O)NCS(=O)(=O)O)[C@H]1CC[C@H]2[C@@H]3CC[C@@H]4C[C@H](CC(C)(C)O)CC[C@]4(C)[C@H]3CC[C@]12C [Compound 8a]	–	18.5	–
C[C@H](CCC(=O)NCCS(=O)(=O)O)[C@H]1CC[C@H]2[C@@H]3CC[C@@H]4C[C@H](CC(C)(C)O)CC[C@]4(C)[C@H]3CC[C@]12C [Compound 8b]	–	6.56	–
C[C@H](CCC(=O)O)[C@H]1CC[C@H]2[C@@H]3CC[C@@H]4C[C@H](O)CC[C@]4(C)[C@H]3CC[C@]12C [LCA (2), Lithocholic acid]	–	–	Transactivation Assay EC50 (VDR; [4]): Inactive ^a; VDR transactivation activity (in words) (VDR; HEK293 cells, LCA: at the concentration below 1 μM): did not show the activity; HL-60 Assay EC50 (HL-60 cells; [5]): Inactive ^a
H-KNHPMLMNLLKDN-NH2 (also called MED1 peptide; source: synthetic peptide) [coactivator peptide (H2N-KNHPMLMNLLKDN-CONH2) derived from DRIP205]	–	–	binding result [3]: binds
